Source: the NIST ThermoML archive (doi:10.1021/je201051q)

Assay: xn = mol fraction of the nth substance listed
Conditions: isochoric method

C=C(F)C(F)(F)F [2,3,3,3-tetrafluoro-1-propene] + O=C=O
Conditions	molar volume [m3/mol]
223.07 K, 420.2 kPa, Fluid (supercritical or subcritical phases), x2 = 0.662	0.001227
223.08 K, 197.6 kPa, Fluid (supercritical or subcritical phases), x2 = 0.365	0.002253
223.28 K, 95.7 kPa, Fluid (supercritical or subcritical phases), x2 = 0.16	0.002938
223.62 K, 147.7 kPa, Fluid (supercritical or subcritical phases), x2 = 0.266	0.002569
223.63 K, 312 kPa, Fluid (supercritical or subcritical phases), x2 = 0.574	0.002153
224.2 K, 460.3 kPa, Fluid (supercritical or subcritical phases), x2 = 0.754	0.001747
224.91 K, 61.7 kPa, Fluid (supercritical or subcritical phases), x2 = 0.051	0.002894
225.14 K, 271.4 kPa, Fluid (supercritical or subcritical phases), x2 = 0.48	0.002063
232.92 K, 331.8 kPa, Fluid (supercritical or subcritical phases), x2 = 0.48	0.002063
232.97 K, 252.9 kPa, Fluid (supercritical or subcritical phases), x2 = 0.365	0.002254
232.97 K, 559 kPa, Fluid (supercritical or subcritical phases), x2 = 0.662	0.001227
233 K, 129.7 kPa, Fluid (supercritical or subcritical phases), x2 = 0.16	0.002939
233.01 K, 387.5 kPa, Fluid (supercritical or subcritical phases), x2 = 0.574	0.002154
233.06 K, 576 kPa, Fluid (supercritical or subcritical phases), x2 = 0.754	0.001747
233.09 K, 190.8 kPa, Fluid (supercritical or subcritical phases), x2 = 0.266	0.00257
233.25 K, 86.7 kPa, Fluid (supercritical or subcritical phases), x2 = 0.051	0.002895
242.68 K, 174.3 kPa, Fluid (supercritical or subcritical phases), x2 = 0.16	0.00294
242.84 K, 412.5 kPa, Fluid (supercritical or subcritical phases), x2 = 0.48	0.002064
242.95 K, 711.4 kPa, Fluid (supercritical or subcritical phases), x2 = 0.662	0.001228
242.99 K, 322.1 kPa, Fluid (supercritical or subcritical phases), x2 = 0.365	0.002255
243.03 K, 246 kPa, Fluid (supercritical or subcritical phases), x2 = 0.266	0.002571
243.04 K, 710.6 kPa, Fluid (supercritical or subcritical phases), x2 = 0.754	0.001748
243.07 K, 124.7 kPa, Fluid (supercritical or subcritical phases), x2 = 0.051	0.002896
243.08 K, 479.4 kPa, Fluid (supercritical or subcritical phases), x2 = 0.574	0.002155
252.69 K, 399.3 kPa, Fluid (supercritical or subcritical phases), x2 = 0.365	0.002256
252.82 K, 234.8 kPa, Fluid (supercritical or subcritical phases), x2 = 0.16	0.002942
252.82 K, 504.1 kPa, Fluid (supercritical or subcritical phases), x2 = 0.48	0.002065
252.9 K, 876.2 kPa, Fluid (supercritical or subcritical phases), x2 = 0.662	0.001228
252.95 K, 315.1 kPa, Fluid (supercritical or subcritical phases), x2 = 0.266	0.002572
252.97 K, 179 kPa, Fluid (supercritical or subcritical phases), x2 = 0.051	0.002897
253.03 K, 574.3 kPa, Fluid (supercritical or subcritical phases), x2 = 0.574	0.002156
253.04 K, 842.3 kPa, Fluid (supercritical or subcritical phases), x2 = 0.754	0.001749
262.58 K, 492.3 kPa, Fluid (supercritical or subcritical phases), x2 = 0.365	0.002257
262.8 K, 313 kPa, Fluid (supercritical or subcritical phases), x2 = 0.16	0.002943
262.86 K, 610.6 kPa, Fluid (supercritical or subcritical phases), x2 = 0.48	0.002066
262.94 K, 1044 kPa, Fluid (supercritical or subcritical phases), x2 = 0.662	0.001229
262.95 K, 401.7 kPa, Fluid (supercritical or subcritical phases), x2 = 0.266	0.002573
262.96 K, 686 kPa, Fluid (supercritical or subcritical phases), x2 = 0.574	0.002157
263.01 K, 980.1 kPa, Fluid (supercritical or subcritical phases), x2 = 0.754	0.00175
263.06 K, 253.3 kPa, Fluid (supercritical or subcritical phases), x2 = 0.051	0.002899
272.66 K, 609 kPa, Fluid (supercritical or subcritical phases), x2 = 0.365	0.002258
272.75 K, 412.9 kPa, Fluid (supercritical or subcritical phases), x2 = 0.16	0.002944
272.82 K, 813.7 kPa, Fluid (supercritical or subcritical phases), x2 = 0.574	0.002158
272.83 K, 1223.1 kPa, Fluid (supercritical or subcritical phases), x2 = 0.662	0.001229
272.84 K, 734.4 kPa, Fluid (supercritical or subcritical phases), x2 = 0.48	0.002067
272.93 K, 348.1 kPa, Fluid (supercritical or subcritical phases), x2 = 0.051	0.0029
272.93 K, 509.9 kPa, Fluid (supercritical or subcritical phases), x2 = 0.266	0.002574
272.98 K, 1122.7 kPa, Gas, x2 = 0.754	0.00175
282.56 K, 466.4 kPa, Fluid (supercritical or subcritical phases), x2 = 0.051	0.002901
282.57 K, 537.9 kPa, Fluid (supercritical or subcritical phases), x2 = 0.16	0.002945
282.62 K, 884.2 kPa, Fluid (supercritical or subcritical phases), x2 = 0.48	0.002068
282.63 K, 1179.9 kPa, Gas, x2 = 0.754	0.001751
282.64 K, 1417.7 kPa, Fluid (supercritical or subcritical phases), x2 = 0.662	0.00123
282.69 K, 751.6 kPa, Fluid (supercritical or subcritical phases), x2 = 0.365	0.002259
282.75 K, 641.4 kPa, Fluid (supercritical or subcritical phases), x2 = 0.266	0.002575
282.88 K, 940.5 kPa, Gas, x2 = 0.574	0.002159
292.47 K, 673.8 kPa, Gas, x2 = 0.16	0.002947
292.6 K, 1003.3 kPa, Gas, x2 = 0.48	0.002069
292.67 K, 1237.7 kPa, Gas, x2 = 0.754	0.001752
292.69 K, 1614 kPa, Gas, x2 = 0.662	0.001231
292.7 K, 623 kPa, Fluid (supercritical or subcritical phases), x2 = 0.051	0.002902
292.75 K, 804.6 kPa, Fluid (supercritical or subcritical phases), x2 = 0.266	0.002577
292.85 K, 906.8 kPa, Gas, x2 = 0.365	0.00226
292.91 K, 1004.6 kPa, Gas, x2 = 0.574	0.00216
